Columns and labels:
Aspergillus niger = assay: Minimum inhibitory concentration (MIC) against fungi, malt extract agar; format: cell-based; conditions: 336 h, 2 weeks at 28° C., 60 to 70% relative atmospheric humidity, read-out: Minimum inhibitory concentrations Aspergillus niger
Protocol: (§1) In each case, the active compounds according to the invention, in concentrations of from 0.1 mg/l to 5000 mg/l, were added to an agar which had been prepared using malt extracts. The MIC was determined after 2 weeks of storage at 28° C. and 60 to 70% relative atmospheric humidity. The MIC is the lowest concentration of active compound at which there is no colonization by the microbial species used.

Penicillium brevicaule = assay: as above; format: cell-based; conditions: 336 h, 2 weeks at 28° C., 60 to 70% relative atmospheric humidity, read-out: Minimum inhibitory concentrations Penicillium brevicaule
Protocol: as §1

Chaetomium globosum = assay: as above; format: cell-based; conditions: 336 h, 2 weeks at 28° C., 60 to 70% relative atmospheric humidity, read-out: Minimum inhibitory concentrations Chaetomium globosum
Protocol: as §1

melting point: 119 °C
MIC (Aspergillus niger): < 20 µg/mL
MIC (Penicillium brevicaule): < 20 µg/mL
MIC (Chaetomium globosum): < 20 µg/mL
Structure (SMILES): Ic1nnnn1C1CCCC1 [Example 1, 1-Cyclopentyl-5-iodotetrazole]

Source: patent publication US7884118B2, “1-cycloalkyl-5-iodotetrazoles” (LANXESS Deutschland GmbH, priority 2005, dated 2011)
